Experimental data reported in patent US7981918B2, “Cyclohexylpyrazole-lactam derivatives as inhibitors of 11-beta-hydroxysteroid dehydrogenase 1” (Eli Lilly and Company, priority 2006, dated 2011).

Key:
[1] = biological target: recombinant human 11β-HSD type 1 enzyme (Homo sapiens, UniProt P28845); experiment: 11β-HSD Type 1 Enzyme Assay (NADPH fluorescence); format: biochemical; settings: three hour incubation at room temperature, read-out: Human 11-βHSD1 IC50
Procedure: 11β-HSD Type 1 Enzyme Assay
Human 11β-HSD type 1 activity is measured by assaying NADPH production by fluorescence assay. Solid compounds are dissolved in DMSO to a concentration of 10 mM. Twenty microliters of each are then transferred to a column of a 96-well polypropylene Nunc plate where they are further diluted 50-fold followed by subsequent two-fold titration, ten times across the plate with additional DMSO using a Tecan Genesis 200 automated system. Plates are then transferred to a Tecan Freedom 200 system with an attached Tecan Temo 96-well head and an Ultra 384 plate reader. Reagents are supplied in 96-well polypropylene Nunc plates and are dispensed individually into black 96-well Molecular Devices High Efficiency assay plates (40 μL/well capacity) in the following fashion: 9 μL/well of substrate (2.22 mM NADP, 55.5 μM Cortisol, 10 mM Tris, 0.25% Prionex, 0.1% Triton X100), 3 μL/well of water to compound wells or 3 μL to control and standard wells, 6 μL/well recombinant human 11β-HSD type 1 enzyme, 2 μL/well of compound dilutions. For ultimate calculation of percent inhibition, a series of wells are added that represent assay minimum and maximum: one set containing substrate with 667 μM carbenoxolone (background), and another set containing substrate and enzyme without compound (maximum signal). Final DMSO concentration is 0.5% for all compounds, controls and standards. Plates are then placed on a shaker by the robotic arm of the Tecan for 15 seconds before being covered and stacked for a three hour incubation period at room temperature. Upon completion of this incubation, the Tecan robotic arm removes each plate individually from the stacker and places them in position for addition of 5 μL/well of a 250 μM carbenoxolone solution to stop the enzymatic reaction. Plates are then shaken once more for 15 seconds then placed into an Ultra 384 microplate reader (355EX/460EM) for detection of NADPH fluorescence.

11β-HSD1 = biological target: T1, 11β-HSD1 (Homo sapiens, UniProt P28845); experiment: Human Aortic Smooth Muscle Cell Assay (cortisone to cortisol); format: cell-based; settings: primary human aortic smooth muscle cells (AoSMC), hTNFα-induced 11β-HSD1, cortisol by immunoassay
T1 construct: containing 12 ng/mL hTNFα to induce expression of 11β-HSD1; endogenous in cells; host or cells: primary human aortic smooth muscle cells (AoSMC), induced with hTNFα
Procedure: Human Aortic Smooth Muscle Cell Assay
Primary human aortic smooth muscle cells (AoSMC) are cultured in 5% FBS growth medium to a passage number of 6, then pelleted by centrifugation and resuspended at a density of 9×10^4 cells/mL in 0.5% FBS assay medium containing 12 ng/mL hTNFα to induce expression of 11β-HSD1. Cells are seeded into 96-well tissue culture assay plates at 100 μL/well (9×10^3 cells/well) and incubated for 48 hours at 37° C., 5% CO2. Following induction, cells are incubated for 4 hours at 37° C., 5% CO2 in assay medium containing test compounds then treated with 10 μL/well of 10 μM cortisone solubilized in assay medium, and incubated for 16 hours at 37° C., 5% CO2. Medium from each well is transferred to a plate for subsequent analysis of cortisol using a competitive fluorescence resonance time resolved immunoassay. In solution, an allophycocyanin (APC)-cortisol conjugate and free cortisol analyte compete for binding to a mouse anti-cortisol antibody/Europium (Eu)-anti mouse IgG complex. Higher levels of free cortisol result in diminishing energy transfer from the Europium-IgG to the APC-cortisol complex resulting in less APC fluorescence. Fluorescent intensities for Europium and APC are measured using a LJL Analyst AD. Europium and APC excitation is measured using 360 nm excitation and 615 nm and 650 nm emission filters respectively. Time resolved parameters for Europuium were 1000 μs integration time with a 200 μs delay. APC parameters are set at 150 μs integration time with a 50 μs delay. Fluorescent intensities measured for APC are modified by dividing by the Eu fluorescence (APC/Eu). This ratio is then used to determine the unknown cortisol concentration by interpolation using a cortisol standard curve fitted with a 4-parameter logistic equation. These concentrations are then used to determine compound activity by plotting concentration versus % inhibition, fitting with a 4-parameter curve and reporting the IC50.

11-βHSD2 enzyme = biological target: T2, 11-βHSD2 enzyme (Homo sapiens, UniProt P80365); experiment: Selectivity assay using the 11-βHSD2 enzyme; format: biochemical; settings: selectivity 11-βHSD1 over 11-βHSD2
T2 sequence (P80365 1-405): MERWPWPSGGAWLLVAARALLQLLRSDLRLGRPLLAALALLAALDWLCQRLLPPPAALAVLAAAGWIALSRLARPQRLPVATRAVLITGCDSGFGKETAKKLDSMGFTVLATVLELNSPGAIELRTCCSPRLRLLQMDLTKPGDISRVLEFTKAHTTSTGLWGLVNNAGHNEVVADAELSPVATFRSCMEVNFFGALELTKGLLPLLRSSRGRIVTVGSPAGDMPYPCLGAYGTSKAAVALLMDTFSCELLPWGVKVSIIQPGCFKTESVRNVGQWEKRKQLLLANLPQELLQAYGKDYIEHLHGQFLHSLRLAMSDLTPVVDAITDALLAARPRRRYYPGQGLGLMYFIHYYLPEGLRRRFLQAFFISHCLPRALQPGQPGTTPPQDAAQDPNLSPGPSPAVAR
Text: Compounds of the invention can also tested for selectivity against 11-βHSD2 in an assay similar to that described for 11-βHSD1, but using the 11-βHSD2 enzyme. The assay using the 11-βHSD2 enzyme can be carried out by the methods described herein and supplemented by methods known in the art.

cortisone conversion = experiment: Acute In Vivo Cortisone Conversion Assay; set-up: species or system mice (male C57BL/6); settings: Mus musculus; mice, oral dose of 10 mg/kg, cortisone challenge after 16 hours, serum cortisol
Procedure: Acute In Vivo Cortisone Conversion Assay
In general, compounds are dosed orally into mice, the mice are challenged with a subcutaneous injection of cortisone at a set timepoint after compound injection, and the blood of each animal is collected some time later. Separated serum is then isolated and analyzed for levels of cortisone and cortisol by LC-MS/MS, followed by calculation of mean cortisol and percent inhibition of each dosing group. Specifically, male C57BL/6 mice are obtained from Harlan Sprague Dawley at average weight of 25 grams. Exact weights are taken upon arrival and the mice randomized into groups of similar weights. Compounds are prepared in 1% w-w HEC, 0.25% w-w polysorbate 80, 0.05% w-w Dow Corning antifoam #1510-US at various doses based on assumed average weight of 25 grams. Compounds are dosed orally, 200 μl per animal, followed by a subcutaneous dose, 200 μl per animal, of 30 mg/kg cortisone at 1 to 24 hours post compound dose. At 10 minutes post cortisone challenge, each animal is euthanized for 1 minute in a CO2 chamber, followed by blood collection via cardiac puncture into serum separator tubes. Once fully clotted, tubes are spun at 2500×g, 4° C. for 15 minutes, the serum transferred to wells of 96-well plates (Corning Inc, Costar #4410, cluster tubes, 1.2 ml, polypropylene), and the plates are frozen at −20° C. until analysis by LC-MS/MS. For analysis, serum samples are thawed and the proteins are precipitated by the addition of acetonitrile containing d4-cortisol internal standard. Samples are vortex mixed and centrifuged. The supernatant is removed and dried under a stream of warm nitrogen. Extracts are reconstituted in methanol/water (1:1) and injected onto the LC-MS/MS system. The levels of cortisone and cortisol are assayed by selective reaction monitoring mode following positive ACPI ionization on a triple quadrupole mass spectrophotometer.

T1 sequence (P28845 whole entry): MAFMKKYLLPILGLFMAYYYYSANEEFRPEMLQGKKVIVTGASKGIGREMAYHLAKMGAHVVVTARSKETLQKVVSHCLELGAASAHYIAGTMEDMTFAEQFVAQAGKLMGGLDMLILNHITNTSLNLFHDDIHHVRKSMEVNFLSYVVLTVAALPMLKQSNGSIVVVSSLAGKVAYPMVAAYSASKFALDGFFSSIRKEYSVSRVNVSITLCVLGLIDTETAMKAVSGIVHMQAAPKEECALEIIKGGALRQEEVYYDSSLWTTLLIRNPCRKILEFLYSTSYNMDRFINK
recombinant human 11β-HSD type 1 enzyme, sequence (P28845 whole entry): as above

SMILES	IC50 [1] [nM]	IC50 (11β-HSD1) [nM]	inhibition at 10 mg/kg (cortisone conversion) [%]	other results
COc1cc(Cl)c(CC2CCN(C3CCc4n[nH]cc4C3)C2=O)c(Cl)c1 (racemic) [Example 1, 3-(2,6-Dichloro-4-methoxy-benzyl)-1-(4,5,6,7-tetrahydro-2H-indazol-5-yl)-pyrrolidin-2-one]	100			
COc1cc(Cl)c(CC2CCN(C3CCc4n[nH]cc4C3)C2=O)c(Cl)c1 (single isomer, unassigned) [Example 7, 3-(2,6-Dichloro-4-methoxy-benzyl)-1-(4,5,6,7-tetrahydro-2H-indazol-5-yl)-pyrrolidin-2-one]	37			
Cn1cc(-c2ccc(CC3CCN(C4CCc5n[nH]cc5C4)C3=O)c(Cl)c2)cn1 (centres unmarked) [Example 11, 3-[2-Chloro-4-(1-methyl-1H-pyrazol-4-yl)-benzyl]-1-(4,5,6,7-tetrahydro-2H-indazol-5-yl)-pyrrolidin-2-one]		24		
O=C1C(Cc2c(Cl)cc(-c3ccccc3)cc2Cl)CCN1C1CCc2n[nH]cc2C1 (centres unmarked) [Example 20]		2		
O=C1[C@H](Cc2c(Cl)cc(OCc3ccccc3)cc2Cl)CCN1[C@H]1CCc2n[nH]cc2C1 [Example 35, (3R,5S)-3-(4-Benzyloxy-2,6-dichloro-benzyl)-1-(4,5,6,7-tetrahydro-2H-indazol-5-yl)-pyrrolidin-2-one]	243			
O=C1[C@H](Cc2c(Cl)cc(-c3ccc(F)cc3)cc2Cl)CCN1[C@H]1CCc2n[nH]cc2C1 [Example 36, (3R-5S)-(−)-3-(3,5-Dichloro-4′-fluoro-biphenyl-4-ylmethyl)-1-(4,5,6,7-tetrahydro-2H-indazol-5-yl)-pyrrolidin-2-one]	276	0.4	95	fold greater inhibition of 11-βHSD1 enzyme as compared to the inhibition of 11-βHSD2 (11-βHSD2 enzyme): 535 fold
O=C(c1ccc(-c2cc(Cl)c(C[C@@H]3CCN(C4CCc5n[nH]cc5C4)C3=O)c(Cl)c2)cc1)N1CCOCC1 (some centres unmarked) [Example 41]			84	
O=C1[C@H](Cc2c(Cl)cc(-c3ccc(F)nc3)cc2Cl)CCN1C1CCc2n[nH]cc2C1 (some centres unmarked) [Example 44]			92	
